Experimental data reported in patent US20250163104A1, “MACROCYCLIC IMMUNOMODULATORS” (priority 2021, published 2025).
pIC50: −log10 of the molar value. *1 amine or outer side, *2 acyl side, *3 side chain or, on linkers, in order; H or OH if unused. Where a SMILES comes first, the peptide text is derived from it. Bridges are numbered along the chain shown (N, C = ends). [ ]: non-standard residue; d: D form. The star is where a group is joined. Phe(3-CH2NH2) = O=C([C@H](Cc1cccc(CN[*:3])c1)N[*:1])[*:2]; Bip = N[C@@H](Cc1ccc(-c2ccccc2)cc1)C(=O)O; Phe(3-CN) = N#Cc1cccc(C[C@H](N)C(=O)O)c1; AEF = NCCOc1ccc(C[C@H](N)C(=O)O)cc1; Cha = N[C@@H](CC1CCCCC1)C(=O)O; Carboxymethyl = O=C(O)C*; Orn = NCCC[C@H](N)C(=O)O; Dab = NCC[C@H](N)C(=O)O; Dap = NC[C@H](N)C(=O)O

What follows are compounds tested against T1, human PD-1 / PD-L1-Ig binding on Jurkat cell line over-expressing human PD-1 (Jurkat-PD-1) (Homo sapiens, UniProt Q15116) (assay: Jurkat-PD-1 Cell Binding High-Content Screening Assay (CBA)). Conditions: Jurkat-PD-1 cells, PE-labeled PD-L1-Ig 20 nM final; read-out: Jurkat HPD1_PDL1 IC50.
T1 construct: expressed in transfected cells; host or cells: Jurkat
T1 sequence (Q15116 25-288): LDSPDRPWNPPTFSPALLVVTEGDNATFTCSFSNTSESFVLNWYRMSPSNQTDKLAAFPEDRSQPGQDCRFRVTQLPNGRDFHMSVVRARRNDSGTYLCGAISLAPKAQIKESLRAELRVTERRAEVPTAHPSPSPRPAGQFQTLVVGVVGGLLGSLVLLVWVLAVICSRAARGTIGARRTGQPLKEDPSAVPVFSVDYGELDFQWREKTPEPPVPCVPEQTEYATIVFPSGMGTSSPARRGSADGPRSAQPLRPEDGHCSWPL
Format: cell-based
How it was run: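 Binding of fluorescent PD-L1-Ig (phycoerythrin linked via the Ig tag, 20 nM final) to PD-1-overexpressing Jurkat cells was imaged after a 2 h, 37° C compound pretreatment and 1 hour ligand incubation.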

`CC(C)C[C@H]1NC(=O)[C@H](CCCN)NC(=O)[C@H](CCC(=O)O)NC(=O)[C@H](Cc2ccc(-c3ccccc3)cc2)NC(=O)[C@H](C(C)C)NC(=O)[C@H](Cc2c[nH]c3ccccc23)NC(=O)[C@H](CC(=O)O)NC(=O)[C@H](Cc2ccc(OCC(=O)O)cc2)NC(=O)[C@H](CN)NC(=O)CSC[C@@H](C(=O)N[C@@H](C)C(N)=O)NC(=O)[C@H]([C@@H](C)O)NC(=O)[C@H](C(C)C)NC(=O)[C@H](Cc2cccc(C#N)c2)NC(=O)[C@H](CCN)NC1=O` [Compound 1507] ({CH2CO}-[Dap]Y(Carboxymethyl)DWV[Bip]E[Orn][dL][Dab][Phe(3-CN)]VTCA-NH2; thioether N-14) and `CC(C)C[C@H]1NC(=O)[C@H](CCCN)NC(=O)[C@H](CCC(=O)O)NC(=O)[C@H](Cc2ccc(-c3ccccc3)cc2)NC(=O)[C@H](C(C)C)NC(=O)[C@H](Cc2c[nH]c3ccccc23)NC(=O)[C@H](CC(=O)O)NC(=O)[C@H](Cc2ccc(OCC(=O)O)cc2)NC(=O)[C@H](CN)NC(=O)CSC[C@@H](C(=O)N[C@@H](C)C(N)=O)NC(=O)[C@H]([C@@H](C)O)NC(=O)[C@H](C(C)C)NC(=O)[C@H](Cc2cccc(CN)c2)NC(=O)[C@H](CCN)NC1=O` [Compound 1508] ({CH2CO}-[Dap]Y(Carboxymethyl)DWV[Bip]E[Orn][dL][Dab][Phe(3-CH2NH2)]VTCA-NH2; thioether N-14) are within 0.2 log units of each other in pIC50: 6.81 for the first, 6.79 for the second.

First: CC(C)C[C@H]1NC(=O)[C@H](CCCN)NC(=O)[C@H](CCC(=O)O)NC(=O)[C@H](Cc2ccc(-c3ccccc3)cc2)NC(=O)[C@H](C(C)C)NC(=O)[C@H](Cc2c[nH]c3ccccc23)NC(=O)[C@H](CC(=O)O)NC(=O)[C@H](Cc2ccc(OCC(=O)O)cc2)NC(=O)[C@H](CN)NC(=O)CSC[C@@H](C(=O)N[C@@H](C)C(N)=O)NC(=O)[C@H]([C@@H](C)O)NC(=O)[C@H](C(C)C)NC(=O)[C@H](Cc2ccn[nH]2)NC(=O)[C@H](CCN)NC1=O [Compound 1509]
Second: CC(C)C[C@H]1NC(=O)[C@H](CCCN)NC(=O)[C@H](CCC(=O)O)NC(=O)[C@H](Cc2ccc(-c3ccccc3)cc2)NC(=O)[C@H](C(C)C)NC(=O)[C@H](Cc2c[nH]c3ccccc23)NC(=O)[C@H](CC(=O)O)NC(=O)[C@H](Cc2ccc(OCC(=O)O)cc2)NC(=O)[C@H](CN)NC(=O)CSC[C@@H](C(=O)N[C@@H](C)C(N)=O)NC(=O)[C@H]([C@@H](C)O)NC(=O)[C@H](C(C)C)NC(=O)[C@H](Cc2cscn2)NC(=O)[C@H](CCN)NC1=O [Compound 1510]
The pIC50 of the first is 1.21 log units lower: 6.38 for the first, 7.59 for the second. The second is the more potent here.

First: CC(C)C[C@H]1NC(=O)[C@H](CCCN)NC(=O)[C@H](CCC(=O)O)NC(=O)[C@H](Cc2ccc(-c3ccccc3)cc2)NC(=O)[C@H](C(C)C)NC(=O)[C@H](Cc2c[nH]c3ccccc23)NC(=O)[C@H](CC(=O)O)NC(=O)[C@H](Cc2ccc(OCC(=O)O)cc2)NC(=O)[C@H](CN)NC(=O)CSC[C@@H](C(=O)N[C@@H](C)C(N)=O)NC(=O)[C@H]([C@@H](C)O)NC(=O)[C@H](C(C)C)NC(=O)[C@H](Cc2ccc(OCCN)cc2)NC(=O)[C@H](CCN)NC1=O [Compound 1511] ({CH2CO}-[Dap]Y(Carboxymethyl)DWV[Bip]E[Orn][dL][Dab][AEF]VTCA-NH2; thioether N-14)
Second: CC(C)C[C@H]1NC(=O)[C@H](CCCN)NC(=O)[C@H](CCC(=O)O)NC(=O)[C@H](Cc2ccc(-c3ccccc3)cc2)NC(=O)[C@H](C(C)C)NC(=O)[C@H](Cc2c[nH]c3ccccc23)NC(=O)[C@H](CC(=O)O)NC(=O)[C@H](Cc2ccc(OCC(=O)O)cc2)NC(=O)[C@H](CN)NC(=O)CSC[C@@H](C(=O)N[C@@H](C)C(N)=O)NC(=O)[C@H]([C@@H](C)O)NC(=O)[C@H](C(C)C)NC(=O)[C@H](CC2CCCCC2)NC(=O)[C@H](CCC(N)=O)NC1=O [Compound 1513] ({CH2CO}-[Dap]Y(Carboxymethyl)DWV[Bip]E[Orn][dL]Q[Cha]VTCA-NH2; thioether N-14)
The pIC50 of the first is 1.46 log units lower: 6.13 for the first, 7.59 for the second. The second is the more potent here.

`CC(C)C[C@H]1NC(=O)[C@H](CCCN)NC(=O)[C@H](CCC(=O)O)NC(=O)[C@H](Cc2ccc(-c3ccccc3)cc2)NC(=O)[C@H](C(C)C)NC(=O)[C@H](Cc2c[nH]c3ccccc23)NC(=O)[C@H](CC(=O)O)NC(=O)[C@H](Cc2ccc(OCC(=O)O)cc2)NC(=O)[C@H](CN)NC(=O)CSC[C@@H](C(=O)N[C@@H](C)C(N)=O)NC(=O)[C@H]([C@@H](C)O)NC(=O)[C@H](C(C)C)NC(=O)[C@H](CC2CCCCC2)NC(=O)[C@H](CC(N)=O)NC1=O` [Compound 1512] ({CH2CO}-[Dap]Y(Carboxymethyl)DWV[Bip]E[Orn][dL]N[Cha]VTCA-NH2; thioether N-14) and `CC(C)C[C@H]1NC(=O)[C@H](CCCN)NC(=O)[C@H](CCC(=O)O)NC(=O)[C@H](Cc2ccc(-c3ccccc3)cc2)NC(=O)[C@H](C(C)C)NC(=O)[C@H](Cc2c[nH]c3ccccc23)NC(=O)[C@H](CC(=O)O)NC(=O)[C@H](Cc2ccc(OCC(=O)O)cc2)NC(=O)[C@H](CN)NC(=O)CSC[C@@H](C(=O)N[C@@H](C)C(N)=O)NC(=O)[C@H]([C@@H](C)O)NC(=O)[C@H](C(C)C)NC(=O)[C@H](CC2CCCCC2)NC(=O)[C@H](CC(=O)O)NC1=O` [Compound 1514] ({CH2CO}-[Dap]Y(Carboxymethyl)DWV[Bip]E[Orn][dL]D[Cha]VTCA-NH2; thioether N-14) are within 0.2 log units of each other in pIC50: 7.64 for the first, 7.46 for the second.

`CC(C)C[C@H]1NC(=O)[C@H](CCCN)NC(=O)[C@H](CCC(=O)O)NC(=O)[C@H](Cc2ccc(-c3ccccc3)cc2)NC(=O)[C@H](C(C)C)NC(=O)[C@H](Cc2c[nH]c3ccccc23)NC(=O)[C@H](CC(=O)O)NC(=O)[C@H](Cc2ccc(OCC(=O)O)cc2)NC(=O)[C@H](CN)NC(=O)CSC[C@@H](C(=O)N[C@@H](C)C(N)=O)NC(=O)[C@H]([C@@H](C)O)NC(=O)[C@H](C(C)C)NC(=O)[C@H](CC2CCCCC2)NC(=O)[C@H](CCC(=O)O)NC1=O` [Compound 1515] ({CH2CO}-[Dap]Y(Carboxymethyl)DWV[Bip]E[Orn][dL]E[Cha]VTCA-NH2; thioether N-14) and `CC(C)C[C@H]1NC(=O)[C@H](CCCN)NC(=O)[C@H](CCC(=O)O)NC(=O)[C@H](Cc2ccc(-c3ccccc3)cc2)NC(=O)[C@H](C(C)C)NC(=O)[C@H](Cc2c[nH]c3ccccc23)NC(=O)[C@H](CC(=O)O)NC(=O)[C@H](Cc2ccc(OCC(=O)O)cc2)NC(=O)[C@H](CN)NC(=O)CSC[C@@H](C(=O)N[C@@H](C)C(N)=O)NC(=O)[C@H]([C@@H](C)O)NC(=O)[C@H](C(C)C)NC(=O)[C@H](CC2CCCCC2)NC(=O)[C@H](CO)NC1=O` [Compound 1516] ({CH2CO}-[Dap]Y(Carboxymethyl)DWV[Bip]E[Orn][dL]S[Cha]VTCA-NH2; thioether N-14) are within 0.2 log units of each other in pIC50: 7.54 for the first, 7.52 for the second.

In the case of `CC(C)C[C@H]1NC(=O)[C@H](CCCN)NC(=O)[C@H](CCC(=O)O)NC(=O)[C@H](Cc2ccc(-c3ccccc3)cc2)NC(=O)[C@H](C(C)C)NC(=O)[C@H](Cc2c[nH]c3ccccc23)NC(=O)[C@H](CC(=O)O)NC(=O)[C@H](Cc2ccc(OCC(=O)O)cc2)NC(=O)[C@H](CN)NC(=O)CSC[C@@H](C(=O)N[C@@H](C)C(N)=O)NC(=O)[C@H]([C@@H](C)O)NC(=O)[C@H](C(C)C)NC(=O)[C@H](CC2CCCCC2)NC(=O)[C@H]([C@@H](C)O)NC1=O` [Compound 1517] ({CH2CO}-[Dap]Y(Carboxymethyl)DWV[Bip]E[Orn][dL]T[Cha]VTCA-NH2; thioether N-14), the pIC50 was 7.47.
